In US12134651B2, “Anti-Ryk antibodies and methods of using the same” (The Regents of the University of California, priority 2016, dated 2024):
“Also recorded” adds a separate entry of the source.

Tested on: E16.5 cortical neurons
Assay: Protection of cortical neurons from axonal degeneration induced by aPKC PS
Format: cell-based, mouse
Conditions: 10 μM taxol 2 h prior to and during 2 h treatment of 7 μM aPKC PS
Procedure: Cerebral cortical cell culture—E16.5 mouse pregnant females were sacrificed by CO2 asphyxia and cervical dislocation. Embryos were removed from uterine horns. Skin, skull, and meninges were removed from embryo heads. The cortex was dissected in L-15 medium (Sigma), digested with 0.025% trypsin/0.221 mM EDTA (Mediatech) for 20 min followed by incubation in 5% horse serum prepared in L-15 medium for 5 min to inhibit trypsin. […]
Image acquisition and analysis—All images were acquired on an inverted Zeiss LSM510 confocal microscope with LSM acquisition software (Carl Zeiss Microscopy). For quantification of P-PKCζ T410 immunoreactivity in cell cultures, exposure time was adjusted to be under the saturation level for the highest immunofluorescence signal and was conserved between the different samples. Mean immunofluorescence intensity level in neuronal cell bodies was measured using FiJi-ImageJ software (NIH). All quantifications were performed on 10 non-overlapping fields in cell cultures from at least three independent experiments and on four non-consecutive sections from at least three animals for in vivo experiments. […]

Compound: CC(=O)O[C@H]1C(=O)[C@@]2(C)[C@H]([C@H](OC(=O)c3ccccc3)[C@]3(O)C[C@H](OC(=O)[C@H](O)[C@@H](NC(=O)c4ccccc4)c4ccccc4)C(C)=C1C3(C)C)[C@]1(OC(C)=O)CO[C@@H]1C[C@@H]2O [taxol, reference compound]
- axon degeneration induced by aPKC inhibition: reduced; also recorded: partially prevented
